This data set is described as follows: activity coefficient (dimensionless); of the first substance listed, at infinite dilution; xn = mol fraction of the nth substance listed. As to conditions: 101 kPa, Liquid, Chromatography, x1 = 0.

Activity coefficient data for 12 molecules are collected here from the NIST ThermoML archive (doi:10.1016/j.fluid.2015.09.003).

Numbers after ± are expanded uncertainties.

For the molecule `CC(=O)C(C)C` [3-methyl-2-butanone] + CCOS(=O)(=O)[O-].CC[n+]1cccc(C)c1, the activity coefficient runs as follows: (333.2 K) 4.51 ± 0.21; (343.15 K) 4.62 ± 0.21; (353.09 K) 4.73 ± 0.22; (363.06 K) 4.79 ± 0.22; (372.99 K) 4.95 ± 0.23.

As to `CC(=O)CC(C)C` [4-methylpentan-2-one] + CCOS(=O)(=O)[O-].CC[n+]1cccc(C)c1, the activity coefficient by setting is: (333.2 K) 6.97 ± 0.32; (343.15 K) 6.99 ± 0.32; (353.08 K) 7.03 ± 0.32; (363.06 K) 7.05 ± 0.32; (372.99 K) 7.12 ± 0.33.

Turning to `CC(C)=O` [acetone] + CCOS(=O)(=O)[O-].CC[n+]1cccc(C)c1, the activity coefficient was found to be 1.78 ± 0.08 (323.24 K); 1.8 ± 0.08 (333.19 K); 1.84 ± 0.08 (343.16 K); 1.88 ± 0.08 (353.11 K); 1.92 ± 0.08 (363.08 K); 1.98 ± 0.09 (372.99 K).

Take `CCCCO` [butan-1-ol] + CCOS(=O)(=O)[O-].CC[n+]1cccc(C)c1: the activity coefficient runs as follows: (353.1 K) 1.13 ± 0.03; (363.06 K) 1.1 ± 0.03; (373 K) 1.08 ± 0.03.

As for `CCC(C)O` (stereo not given) [butan-2-ol] + CCOS(=O)(=O)[O-].CC[n+]1cccc(C)c1, the activity coefficient amounted to 1.27 ± 0.04 (333.19 K); 1.25 ± 0.04 (343.14 K); 1.24 ± 0.04 (353.1 K); 1.23 ± 0.04 (363.05 K); 1.23 ± 0.04 (373 K).

Turning to `CCC(C)=O` [butanone] + CCOS(=O)(=O)[O-].CC[n+]1cccc(C)c1, the activity coefficient is, setting by setting: (323.25 K) 2.7 ± 0.12; (333.2 K) 2.74 ± 0.12; (343.16 K) 2.78 ± 0.13; (353.1 K) 2.84 ± 0.13; (363.07 K) 2.88 ± 0.13; (372.99 K) 2.95 ± 0.13.

As for `CCO` [ethanol] + CCOS(=O)(=O)[O-].CC[n+]1cccc(C)c1, the activity coefficient (333.18 K) stood at 0.6 ± 0.03; the activity coefficient (343.13 K) is 0.59 ± 0.03; the activity coefficient (353.1 K) is 0.58 ± 0.03; the activity coefficient (363.09 K) turned out to be 0.58 ± 0.03; the activity coefficient (373.01 K) was determined as 0.57 ± 0.03.

For `CO` [methanol] + CCOS(=O)(=O)[O-].CC[n+]1cccc(C)c1, the activity coefficient by setting is: (323.26 K) 0.32 ± 0.04; (333.2 K) 0.33 ± 0.04; (343.15 K) 0.33 ± 0.04; (353.11 K) 0.33 ± 0.04; (363.07 K) 0.33 ± 0.04; (373 K) 0.33 ± 0.04.

Take `CCCCCO` [pentan-1-ol] + CCOS(=O)(=O)[O-].CC[n+]1cccc(C)c1: the activity coefficient amounted to 1.66 ± 0.07 (353.09 K), 1.59 ± 0.06 (363.05 K) and 1.52 ± 0.06 (373.01 K).

As to `CCCC(C)=O` [pentan-2-one] + CCOS(=O)(=O)[O-].CC[n+]1cccc(C)c1, the activity coefficient (333.2 K) was 4.35 ± 0.2; the activity coefficient (343.15 K) came to 4.38 ± 0.2; the activity coefficient (353.12 K) was found to be 4.44 ± 0.2; the activity coefficient (363.05 K) is 4.46 ± 0.2; the activity coefficient (372.99 K) is 4.52 ± 0.21.

In the case of `CCCO` [propan-1-ol] + CCOS(=O)(=O)[O-].CC[n+]1cccc(C)c1, the activity coefficient by setting is: (333.18 K) 0.81 ± 0.03; (343.13 K) 0.8 ± 0.03; (353.1 K) 0.8 ± 0.03; (363.06 K) 0.79 ± 0.03; (373 K) 0.78 ± 0.03.

For the molecule `CC(C)O` [propan-2-ol] + CCOS(=O)(=O)[O-].CC[n+]1cccc(C)c1, the activity coefficient (323.24 K) amounted to 1 ± 0.03; the activity coefficient (333.19 K) worked out at 0.97 ± 0.03; the activity coefficient (343.14 K) is 0.96 ± 0.03; the activity coefficient (353.09 K) is 0.94 ± 0.03; the activity coefficient (363.06 K) turned out to be 0.93 ± 0.03; the activity coefficient (373 K) worked out at 0.92 ± 0.03.
